From patent publication US4110472A, “Derivatives of 1-(disubstituted phenoxy)-3-amino-2-hydroxypropanes” (Bayer Aktiengesellschaft, priority 1975, dated 1978)
Where a name gives a salt, the structure may show the parent alone.

What was measured:
cerebral blood flow [1] = test: Increase in the cerebral blood flow in cats (133 xenon clearance); conditions: for activity on cerebral blood flow (in words): peroral; for activity on cerebral blood flow (in words) / increase the cerebral blood flow (in words): cats; for increase the cerebral blood flow (in words): Tables 1 and 2, FIGS. 6A, 6B and 7; for action on cerebral blood flow at lower doses vs comparison substances: intravenous administration
From the text: (§1) Increase in the cerebral blood flow in cats and dogs Cats (1.8-3.0 kg) and dogs (18-25 kg) of both sexes are rendered analgetic with fentanyl and curarized.

in vivo = conditions: mouse
[2] = tested on: amnesia induced by electric shock; test: Protective action against amnesia induced by electric shock in male mice; type: in vivo; conditions: vs propanolol and vincamine; 3 administrations at 24 h intervals, FIGS. 1-5
From the text: 1. Protective action against amnesia in male mice A modification of the method of Taber and Banuazizi (Psychopharmacol. 9, 382-91, 1966) was employed. Mice are taught to remain seated in a small compartment of a test cage and not to move into the larger compartment in which an electric shock to the foot were previously received. If a convulsive electric shock is applied to a mouse after it has been so taught, it develops amnesia and forgets the previous experience (the shock to its foot in the larger compartment),and moves from the smaller compartment into the larger compartment. By pre-treating the animals with a test substance, it is possible to determine whether these substances have any protective action against the amnesia produced. Each test substance is administered to the particular animal 3 times at intervals of 24 hours, the last administration being 1 hour before the first test. Two groups are formed for each test; a control group with amnesia and a pre-treated group. For each test group, the average value of the times which have elapsed befoe the barrier is crossed on the 2nd day is calculated. This time is taken as a criterion for the learning capacity.

cerebral blood flow [3] = test: Increase in the cerebral blood flow in dogs (133 xenon clearance); type: in vivo; conditions: FIGS. 6A, 6B and 7
From the text: as §1

[4] = tested on: 7-minute complete cerebral ischaemia; test: Restricted circulation and mortality after a transient total cerebral ischaemia (experimental apoplexy); type: in vivo
From the text: Restricted circulation and mortality after a transient total cerebral ischaemia ("experimental apoplexy")
A 7-minute complete cerebral ischaemia is caused in curarized cats by inflating a collar placed around the neck.

| Structure (SMILES) | activity on cerebral blood flow (in words) (cerebral blood flow [1]; 50 mg/kg) | LD50 (in vivo; iv, mice, intravenously) | LD50 (in vivo; po, mice, orally) | protective action against amnesia induced by electric shock [2] | increase the cerebral blood flow (in words) (cerebral blood flow [3]) | increase the cerebral blood flow (in words) (cerebral blood flow [1]) | action on cerebral blood flow at lower doses vs comparison substances (cerebral blood flow [1]) | activity on cerebral blood flow (in words) (cerebral blood flow [1]; at 50 and 25 mg/kg) | restriction in the cerebral blood flow after a 7-minute cerebral ischaemia ([4]; cats, pretreated 50 mg/kg perorally) | mortality after 7-minute cerebral ischaemia (cats died) ([4]; pretreated 50 mg/kg perorally, 94% of controls died within 48 hours, significant) | LD50 (in vivo; iv) | LD50 (in vivo; po) | activity in the experimental apoplexy test (in words) ([4]; cats) |
| --- | --- | --- | --- | --- | --- | --- | --- | --- | --- | --- | --- | --- | --- |
| CN(C)CCCOC1(Cc2ccccc2)CCCCCC1 [bencyclan, reference compound] | inactive | 33 mg/kg | > 2000 mg/kg | – | – | – | – | – | – | – | – | – | – |
| C=CCc1ccc(OCC(O)CNC(c2ccccc2)c2ccccc2)c(OC)c1.Cl (centres unmarked) [Compound B, 1-(2-methoxy-4-allylphenoxy)-2-hydroxy-3-diphenylmethylaminopropane hydrochloride] | – | 43 mg/kg | 450 mg/kg | considerably more effective | significantly increase | significantly increase | stronger than that of the comparison substances | distinct action | – | – | – | – | – |
| C/C=C/c1ccc(OCC)c(OCC(O)CNC(c2ccccc2)c2ccccc2)c1 (stereo not drawn) [Compound A, 1-(2-ethoxy-5-trans-propenylphenoxy)-2-hydroxy-3-diphenylmethylaminopropane hydrochloride] | – | – | – | considerably more effective | significantly increase | significantly increase | stronger than that of the comparison substances | distinct action | no restriction | 33% | 80 mg/kg | > 2000 mg/kg | – |
| OC(CNC(c1ccccc1)c1ccccc1)COc1ccc(Cl)c(Cl)c1 (centres unmarked) [Compound D, 1-(3,4-dichlorophenoxy)-2-hydroxy-3-diphenylmethylaminopropane] | – | 76 mg/kg | > 2000 mg/kg | considerably more effective | significantly increase | significantly increase | stronger than that of the comparison substances | distinct action | – | – | – | – | – |
| CC[C@]12CCCN3CCc4c(n(c5ccccc45)[C@@](O)(C(=O)OC)C1)[C@@H]32 [vincamine, reference compound] | – | 95 mg/kg | 460 mg/kg | – | – | – | – | – | – | – | – | – | inactive |
| C/C=C/c1ccc(OCC)c(OCC(O)CNC2c3ccccc3-c3ccccc32)c1 (stereo not drawn) [Compound C, 1-(2-ethoxy-5-trans-propenylphenoxy)-2-hydroxy-3-(9-fluorenylamino)-propane] | – | 85 mg/kg | > 2000 mg/kg | – | significantly increase | significantly increase | stronger than that of the comparison substances | distinct action | – | – | – | – | – |
